Measured values taken from patent US5281594A, “Substituted 1-(alkoxyphenyl)piperazines with ons and antihypertensive activity” (The Upjohn Company, priority 1992, dated 1994).
Where two headings read alike, the source gives them in different places.

Legend:
[1] = tested on: dopaminergic neurons in the substantia nigra (SNPC); assay: Dopamine nerve impulse generation: reversal of amphetamine-induced depression of firing (antagonist); assay type: in vivo, Sprague-Dawley rats; settings: for ED50: Rattus norvegicus, Neuron, iv, read-out: Antagonist ED50: dose to reverse amphetamine by 50%
Text: (§1) 3. Dopamine Nerve Impulse Generation
Dopamine partial agonists act as dopamine antagonists when dopaminergic activity is excessive. Excessive dopaminergic activity can be induced by amphetamine, which causes dopamine to be released at nerve terminals in dopaminergic postsynaptic areas such as the caudate nucleus. This released dopamine activates negative feedback systems connecting postsynaptic dopaminergic areas to dopamine cells (e.g., the caudate nucleus feeds back onto substantia nigra neurons). Through this negative feedback system, amphetamine inhibits nerve impulses in dopamine neurons. Because dopamine antagonists block the access of dopamine to its receptors, these agents block the activation of the negative feedback pathways. Thus, dopamine antagonists and dopamine partial agonists block or reverse amphetamine's depression in dopamine nerve impulse activity. Because dopamine antagonists block not only the dopamine released by amphetamine but also the dopamine released for maintenance of a normal physiological state, dopamine antagonists not only completely reverse the effects of amphetamine but may actually cause an increase in dopamine neuron impulse activity (i.e. reverse amphetamine's inhibition by more than 100%). […] Indeed, partial agonists with higher intrinsic activities only partially reverse the effects of amphetamine.
(§2) The activity of two compounds of the invention are compared with other known drugs in their effect on nerve impulse generation. Sprague-Dawley rats weighing between 250-350 g are anesthetized with chloral hydrate (400 mg/kg i.p.). Supplemental doses (50-100 mg/kg) are administered as needed. The fermoral artery and vein are cannulated to measure blood pressure and to permit i.v. administration of drug. Body temperature is maintained at 37° C. using a deltaphase isothermal pad. The animal's head is held in a stereotaxic device and a small burr hole made in the cranium. Extracellular action potentials are recorded with a glass microelectrode (tip size<1μm) filled with pontamine sky blue dye in 2M sodium chloride.
(§3) Dopaminergic neurons are identified by their long duration action potential (>2.5 ms), shape and firing pattern ([…]) according to B. S. Bunney and G. K. Aghajanian "Antipsychotic Drugs and Central Dopaminergic Neurons: A Model for Predicting Therapeutic Efficacy and Incidence of Extrapyramidal Side Effects, In: Predictability in Psychopharmacology: Preclinical and Clinical Correlates, eds.", Raven Press, N.Y., pp. 225-245 (1975). […] Watson "The Rat Brain in Stereotaxic Coordinates", Academic Press, Sydney (1982).
(§4) At the termination of each recording session, the location of the cell in the substantia nigra is identified by passing 10 μA cathodic current through the recording electrode for 10-20 minutes. The brain is then removed, fixed in 10% formalin, sectioned and stained, and the pontamine sky blue deposit verified in each animal.
(§5) All drug solutions are made in distilled water. Each drug injection contained no more than 0.15 ml of a given concentration, followed by a 0.2-0.4 ml of physiological saline to clean the catheter of any residual drug. Drug effects are measured as changes in firing rates as indicated by an integrated output throughout the experiment.

[2] = tested on: dopaminergic neurons in the substantia nigra (SNPC); assay: Dopamine nerve impulse generation: depression of firing of substantia nigra dopamine neurons (agonist); assay type: in vivo, Sprague-Dawley rats; settings: for ED50 / Emax: Rattus norvegicus, Neuron, iv; for ED50: read-out: Agonist ED50: dose to depress firing by 50%; for Emax: read-out: Agonist Max.: maximal depression of firing; for maximal depression on DA cell firing (% of control): 1 mg/kg i.v.
Text: as §1
Dopaminergic agonists, such as apomorphine, depress nerve impulses generated by dopaminergic neurons. Indeed, all full dopamine agonists can completely suppress impulse generation so that the dopamine cells stop firing completely. As the name implies, partial agonists depress impulse generation only partly.
as §2, §3, §4, §5

D2 receptor [3] = molecular target: T1, D2 receptor (Rattus norvegicus, UniProt P61169); assay: biochemical; assay type: binding; settings: for binding to dopamine receptors (in words): at concentrations as high as 1,000 nM (m-tolyl) and 10,000 nM (p-methoxyphenyl), respectively
T1 sequence (P61169 whole entry): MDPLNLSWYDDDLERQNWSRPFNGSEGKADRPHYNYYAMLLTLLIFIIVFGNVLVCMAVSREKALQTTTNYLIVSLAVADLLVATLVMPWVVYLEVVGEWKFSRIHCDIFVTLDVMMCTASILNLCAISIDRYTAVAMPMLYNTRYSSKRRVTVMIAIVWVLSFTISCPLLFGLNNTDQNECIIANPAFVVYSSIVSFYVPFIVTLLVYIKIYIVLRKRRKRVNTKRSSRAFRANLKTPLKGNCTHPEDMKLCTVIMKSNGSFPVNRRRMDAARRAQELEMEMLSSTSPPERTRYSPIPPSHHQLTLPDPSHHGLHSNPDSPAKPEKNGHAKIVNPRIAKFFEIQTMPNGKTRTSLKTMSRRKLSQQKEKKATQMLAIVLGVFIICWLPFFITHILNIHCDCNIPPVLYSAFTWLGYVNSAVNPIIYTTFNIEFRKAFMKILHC
Procedure: The compounds of the invention are tested in a series of assays known by those skilled in the art as predictive for activity as dopamine partial agonists. […] Drugs. […] Except as otherwise stated, all other chemicals are widely available from commercial sources.
1. Dopamine Receptor Binding
Since a dopamine partial agonist must bind to the dopamine receptor, binding studies are used to determine the affinity of a compound for the receptor. […] The dopamine receptor affinity of the prior art compounds is compared to two compounds of the present invention following the procedure described in R. H. Roth. Comm. […] Compounds are tested at least four concentrations in triplicate. Non-specific binding is determined using 1 uM thioridazine.

[4] = tested on: dopamine receptor within the central nervous system; assay: Block of apomorphine-induced cage climbing; assay type: in vivo, CF-1 mice; settings: i.p., 25 minutes before apomorphine HCl 2.5 mg/kg i.p.; i.a. = inactive at top dose of 50 mg/kg
Procedure: Administration to mice stimulates dopaminergic receptors which results in enhanced locomotor activity, including climbing up the sides of wire cages. […] As a specific measure of their antagonistic effect, both the prior art compounds and the compounds of the invention are tested in their ability to block agonist-induced locomotor activity. […] During this time, mice that climb the walls more than half-way to the top (6") are removed from the cage. […] Co., New York, N.Y., p.

[5] = tested on: amphetamine-induced stereotyped behavior; assay: Antagonism of amphetamine-induced stereotyped behavior; assay type: in vivo, Sprague-Dawley rats; settings: for minimal effective dose: Rattus norvegicus, ip, i.p. 30 minutes before d-amphetamine (10 mg/kg s.c.), read-out: Antagonism amphetamine stereotypy: threshold dose for effect
Text: Amphetamine releases excessive dopamine and induces a state in animals that serves as a model of positive-symptom schizophrenia. Amphetamine stimulates excessive locomotor activity in the rat, including uncontrolled stereotyped movements, characterized by licking and chewing. This model is indicative of the human response as amphetamine abuse is characterized by schizophrenic-like behavior in humans. Thus compounds may be tested in their ability to antagonize amphetamine.

catalepsy [6] = assay: Catalepsy
catalepsy [7] = settings: rat, in vivo
D2 receptor [8] = settings: PET scanning in humans; Farde; cited from earlier work
D2 receptor [9] = molecular target: T1, D2 receptor; settings: rat striata; Kohler; cited from earlier work
[10] = 3H-raclopride, whole rat brain, non-specific binding with 1 uM thioridazine, i.a. = inactive at specified concentration, read-out: Ki (dose for 50% occupation of the receptors)

## CCN(CC)C(=O)N[C@H]1C[C@@H]2c3cccc4[nH]cc(c34)C[C@H]2N(C)C1 [TDHL, 1-1-diethyl-3-(6-methyl-8α-ergoline)-urea dihydrogenphosphate]
[1]
  ED50: 0.136 mg/kg
[1]; i.v.
  Antagonist Max.: maximal reversal of amphetamine: 60%
[2]
  ED50: 0.021 mg/kg
  Emax: 53%
D2 receptor [3]; [10]
  Ki: 0.95 nM
[4]
  ED50: dose for elimination of climbing behavior in 2 of 4 animals: 35 mg/kg

## COc1ccccc1N1CCN(CCCCN2CCN(c3cccc(Cl)c3)C2=O)CC1 [Example 2, 1-(3-chlorophenyl)-3-[4-[4-(2-methoxyphenyl)-1-piperazinyl]butyl]-2-imidazolidinone]
[1]; i.a. = inactive
  ED50: 0.343 mg/kg
[1]; i.v.
  Antagonist Max.: maximal reversal of amphetamine: 73%
[2]
  maximal depression on DA cell firing (% of control): 54%
[2]; 3 mg/kg vs 1 mg/kg i.v.
  further depression of SNPC cells on increasing the dose (in words): does not further increase the depression in SNPC cells
[2]; Table 3
  Emax: 54%
[2]; i.a. = inactive
  ED50: 0.108 mg/kg
[2]; i.v.
  depression of SNPC cells (in words): behaved as dopamine partial agonists
D2 receptor [3]; [10]
  Ki: 3.7 nM
[4]
  ED50: dose for elimination of climbing behavior in 2 of 4 animals: 42 mg/kg

## CCCN1CCCC(c2cccc(O)c2)C1 (single isomer, unassigned; (-)) [(-)-3-PPP, (-)-3-(3-hydroxyphenyl)-N-n-propylpiperidine]
[2]; Table 3
  Emax: 70%
[2]; i.a. = inactive
  ED50: 0.086 mg/kg

## Cl.O=C1N(CCCN2CCN(c3ccccc3)CC2)CCN1c1ccccc1 [1-phenyl-3-[3-(4-phenyl-1-piperazinyl)propyl]-2-imidazolidinone hydrochloride]
D2 receptor [3]; read-out: Ki (dose for 50% occupation of the receptors)
  Ki: 323 nM
[4]
  ED50: dose for elimination of climbing behavior in 2 of 4 animals: i.a.

## Cc1[nH]c2cccc3c2c1C[C@@H]1[C@@H]3C[C@H](NC(=O)C(C)(C)C)CN1C [SDZ 208-911, N-[(8-α)-2,6-dimethyl-ergoline-8-yl]-2,2-dimethylpropanamide]
[1]
  ED50: 0.132 mg/kg
[1]; i.v.
  Antagonist Max.: maximal reversal of amphetamine: 92%
[2]
  ED50: 0.038 mg/kg
  Emax: 38%

## CN1C[C@@H](NC(=O)C(C)(C)C)C[C@@H]2c3cccc4[nH]c(Cl)c(c34)C[C@H]21 [SDZ 208-912, N-[(8-α)-2-chloro-6-methyl-ergoline-8-yl]-2,2-dimethylpropanamide]
[1]
  ED50: 0.115 mg/kg
[1]; i.v.
  Antagonist Max.: maximal reversal of amphetamine: 93%
[2]
  ED50: 0.021 mg/kg
  Emax: 16%
D2 receptor [3]
  Ki: 15.7 nM

## CN1CCc2cccc3c2[C@H]1Cc1ccc(O)c(O)c1-3 [Apomorphine]
[1]; i.v.
  Antagonist Max.: maximal reversal of amphetamine: 0%
[1]; i.v., i.a. = inactive
  Antagonist ED50: dose to reverse amphetamine by 50%: i.a.
[2]; Table 3
  Emax: 100%
[2]; i.a. = inactive
  ED50: 0.01 mg/kg

## COc1ccccc1N1CCN(CCCCN2CCN(c3ccccc3)C2=O)CC1 [Example 1, 1-[4-[4-(2-methoxyphenyl)-1-piperazinyl]butyl]-3-phenyl-2-imidazolidinone]
[1]; i.a. = inactive
  ED50: 0.04 mg/kg
[1]; i.v.
  Antagonist Max.: maximal reversal of amphetamine: 70%
  antagonism of amphetamine-induced excessive dopaminergic activity (in words): only partially antagonized amphetamine
[5]
  minimal effective dose: 0.3 mg/kg
[5]; rat, in vivo
  antagonism of amphetamine stereotypy, potency relative to haloperidol (in words): antagonizes amphetamine stereotypy with a potency greater than that of halperidol
Catalepsy [6]; defined as 200% increase in time a rat will spend leaning on a box without aid
  Catalepsy: threshold dose for effect: 10 mg/kg
Catalepsy [6]; rat, in vivo
  catalepsy relative to dose blocking amphetamine-induced stereotypy (in words): produces catalepsy only at doses much higher that required to block amphetamine-induced stereotypy
[2]
  maximal depression on DA cell firing (% of control): 32%
[2]; Table 3
  Emax: 36%
[2]; i.a. = inactive
  ED50: 0.016 mg/kg
[2]; i.v.
  depression of SNPC cells (in words): behaved as dopamine partial agonists
D2 receptor [3]; [10]
  Ki: 2.6 nM
[4]
  ED50: dose for elimination of climbing behavior in 2 of 4 animals: 12 mg/kg

## CCCN(CCC)C1Cc2cccc3cc(O)cc(c23)C1 (single isomer, unassigned; (-)) [(-)-z-(dipropylamino)-2,3-dihydro-1-H-phenalen-5-ol]
D2 receptor [3]
  Ki: 0.47 nM

## 7-hydroxy-1,2,3,4,4a,5,6,10-octahydrobenzo(f)quinoline [HW-165]
[2]; i.v., Table 3
  Agonist Max.: maximal depression of firing: 85%
[2]; i.v., i.a. = inactive
  Agonist ED50: dose to depress firing by 50%: 0.18 mg/kg

## O=C(CCCN1CCC(O)(c2ccc(Cl)cc2)CC1)c1ccc(F)cc1 [Haloperidol]
[1]; i.a. = inactive
  ED50: 0.008 mg/kg
[1]; i.v.
  Antagonist Max.: maximal reversal of amphetamine: 163%
[5]
  minimal effective dose: 1 mg/kg
Catalepsy [7]
  Catalepsy: threshold dose for effect: 1.0 mg/kg
[2]
  Emax: 0%
[2]; i.v., i.a. = inactive
  Agonist ED50: dose to depress firing by 50%: i.a.

## CCN1CCC[C@H]1CNC(=O)c1c(O)c(Cl)cc(Cl)c1OC [raclopride]
D2 receptor [8]
  binding to the D2 receptor (in words): binds to the D2 receptor
D2 receptor [9]
  B max: 23.5 pmoles/g tissue
D2 receptor [3]; 3H-raclopride, whole rat brain
  Bmax: 1.6 pmoles/g tissue

## Cc1cccc(N2CCN(CCCN3CCN(c4cccc(Cl)c4)C3=O)CC2)c1 [1-(m-chlorophenyl)-3-[3-[4-(m-tolyl)-1-piperazinyl]propyl]-2-imidazolidinone]
D2 receptor [3]; [10]
  Ki: > 1000 nM
D2 receptor [3]
  binding to dopamine receptors (in words): do not bind at all
[4]
  ED50: dose for elimination of climbing behavior in 2 of 4 animals: i.a.

## COc1ccc(N2CCN(CCCN3CCN(c4cccc(Cl)c4)C3=O)CC2)cc1 [1-(m-chlorophenyl)-3-[3-[4-(p-methoxy-phenyl)-1-piperazinyl]propyl]-2-imidazolidinone]
D2 receptor [3]; [10]
  Ki: > 10000 nM
D2 receptor [3]
  binding to dopamine receptors (in words): do not bind at all
[4]
  ED50: dose for elimination of climbing behavior in 2 of 4 animals: i.a.
